# Columns and labels:
# [1] = tested on: HPRT1 mRNA in liver tissues; assay: HepG2 orthotopic liver tumor model: HPRT1 mRNA knockdown in liver; assay type: in vivo, mouse; conditions: 5 mg/kg DsiRNA IV, Table 8 formulation, FIG. 14
# Source text: In order to assess the efficiency of targeting and subsequent functionality of an amino-amine or amino-amide cationic lipid formulation of dsRNA, a second intrahepatic tumor model was utilized. Liver tumors were established in mice by direct intrahepatic injection of HepG2 tumor cells. Female nu/nu mice were used as hosts for the HepG2 tumors. Maintaining the mice under anesthesia using Avertin (Sigma), a single 1-cm incision across the midline was made below the sternum, and the left lateral hepatic lobe is exteriorized. Approximately 3×10^6 HepG2 cells suspended in 60 μL of 50% PBS/50% Matrigel™ (BD) are injected slowly into the lobe at a shallow angle using a Hamilton syringe and a 30-gauge needle. A swab was then applied to the puncture wound to stop any bleeding prior to suturing. Mice were allowed to recover from anesthesia in a sterile cage and monitored closely for 2-4 hours before being returned to conventional housing. About three weeks after tumor implantation, mice were randomized into treatment groups. […] The dose was calculated based on mg of dsRNAs/kg of body weight basis according to individual animal weights. […] Body weights were monitored throughout the duration of the study as an indicator of developing tumor burden and treatment tolerability. For efficacy studies, defined humane end points were determined as a surrogate for survival. […]
# [2] = Tolerability of lipid formulations in CD-1 mice (serum clinical chemistry, body weight, liver); assay type: in vivo, mouse; conditions: female CD-1 mice, 2 doses (qod) 10 mg/kg DsiRNA
# Procedure: In order to assess the tolerability of a lipid formulation containing an amino-amine or amino-amide cationic lipid of the invention and a dsRNA, female CD-1 mice were injected with L-6 and L-30 formulations [administered in 2 doses (qod) at 10 mg/kg DsiRNA dose, about 200 mg/kg total lipid dose each] and serum samples were collected 48 hours after the second dose. Serum samples were tested for a panel of clinical chemistry assessments, including liver function tests (LFTs) via measurement of enzymes alanine transaminase (ALT) and aspartate transaminase (AST). Phosphate buffered saline (PBS) was used as vehicle control group. ALT and AST elevation was <3x of PBS group for formulations L-6 and L-30. There were also no changes in body weight or liver observed for L-6 and L-30 formulations. Thus, L-6 and L-30 formulations were well-tolerated. Thus, any of the lipids described herein, and formulations thereof, would be useful for the delivery of one or more agent, e.g., polyanionic or antisense payloads.
# [3] = TNS fluorescence method, apparent pKa of lipid in formulation; assay type: physicochemical; conditions: apparent pKa of the formulation, pH at half-maximal TNS fluorescence
# Source text: The TNS fluorescence method may be used to determine the apparent pKa of the lipid in the formulation. TNS (2-(p-toluidino)-6-naphthalene sulfonic acid) is a negatively charged fluorescent dye whose fluorescence is quenched in the presence of water. […] The increase in the fluorescence can thus be used to estimate the ionization of a cationic lipid when present in different pH environment. Methods of determining pKa using TNS are known in the art, e.g., as described in the Examples.
# To determine pKa values of the cationic lipids of the invention, formulations (concentration of 1 mM) were incubated in phosphate buffer at different pH values, to which TNS dissolved in DMSO was added (resulting final concentration of 6 μM TNS). Fluorescence of the resulting solution was measured on a SpectraMax® M3 fluorescence plate reader with excitation wavelength of 325 nm and emission wavelength of 435 nm. The measured fluorescence of TNS was fitted with a three-parameter sigmoidal function shown in equation 1.
# The pH at which half of the maximum fluorescence was reached was reported as the apparent pKa of the formulation, where a and b are dimensionless parameters reflecting the maximum observed fluorescence and slope of the sigmoidal function, respectively.
# Hep3B tumor = assay: Hepatocellular carcinoma anti-tumor efficacy, orthotopic Hep3B model (serum AFP, tumor weight); assay type: in vivo, mouse; conditions: 5 mg/kg active DsiRNA IV, vs control payload and PBS; for reducing serum AFP: FIG. 15; for reducing tumor weight: FIG. 16
# Source text: Liver tumors were established in mice by direct intrahepatic injection of Hep3B tumor cells as described in Example 10. About two weeks after tumor implantation, mice were randomized into treatment groups. Mice (n=6 per group) received: either (1) the amino-amine or amino-amide lipid formulation of a control dsRNA; (2) the amino-amine or amino-amide lipid formulation of an active dsRNA; or (3) vehicle control, as administered by standard intravenous (i.v.) injection via the lateral tail vein. The dose was calculated based on mg of dsRNAs/kg of body weight basis according to individual animal weights. In the experiments that generated the results shown in FIGS. 15 and 16, animals were dosed at 5 mg/kg DsiRNA with L-6- or L-30-formulated lipid particles. Table 8 above presents specific compositions of lipid formulations comprising the L-6 and L-30 lipids used in the instant studies.
# Body weights were monitored throughout the duration of the study as an indicator of developing tumor burden and treatment tolerability. For efficacy studies, defined humane end points were determined as a surrogate for survival. Assessments were made based on a combination of clinical signs, weight loss, and abdominal distension to define the day of euthanization due to tumor burden. Tumor tissues were removed from the animals of different treatment groups and tumor weights were measured to determine efficacy of different treatment groups. Serum α-fetoprotein (AFP) levels were also measured as a biomarker for tumor burden.
# [4] = tested on: HPRT1 mRNA in mouse liver; assay: In vivo knockdown of HPRT1 mRNA in mouse liver, lipid particles with DsiRNA; conditions: CD1 mice; for % mRNA Knockdown: single IV dose 5 mg/kg, HPRT1 DsiRNA; for % mRNA Knockdown / mrna remaining at 5 mg/kg: 48 hours; for gene silencing at the lower dose: single dose 1 mg/kg, FIG. 12; for mrna remaining at 5 mg/kg: Mus musculus, single dose 5 mg/kg, FIG. 11, read-out: remaining mRNA levels
# Procedure: Formulations were prepared with the following approximate percentages: 20 mol % of one of either L-1, L-2, L-5, L-6, L-7, L-8, L-22, or L-30; 26 mol % of DODMA; 3 mol % of PEG2000-DMPE; 3 mol % of PEG2000-DMG; 13 mol % of DSPC; and 33 mol % of cholesterol. The formulation further included a DsiRNA:total lipid ratio of about 1:20 (w/w).
# Approximately 4-week old CD1 female mice were administered a single dose (either 1 mg/kg or 5 mg/kg) of the lipid particle formulation with a dosing volume of 10 μL/g of body weight by intravenous administration via a tail vein. After 48 hours (post-dosing), tissues were collected in RNALater (Qiagen). In the end point analysis, the total RNA was isolated from the mouse liver for RT-qPCR. The RNA sample was heated at 70° C., for 5 minutes with Oligo(dT) primers before RT. In the PCR reaction, mHPRT expression was normalized with RPL23 (a housekeeping gene, used as a control herein). FIGS. 11 and 12 show data with error bars with mean±SD for n=5 animals/group.
smiles,measurement,setting,value
CCCCC/C=C\C/C=C\CCCCCCCCC(CCCCCCCC/C=C\C/C=C\CCCCC)N1CCN(C)CC1 [Compound L-6],delivery of anti-HPRT1 DsiRNA payload to liver tissues,[1],remarkably effective
same,changes in body weight or liver,[2],no changes
same,tolerability,[2],well-tolerated
same,pKa,[3],5.6
same,reducing serum AFP,Hep3B tumor,remarkably effective
same,reducing tumor weight,Hep3B tumor,remarkably effective
same,% mRNA Knockdown,[4],88.2%
same,gene silencing at the lower dose,[4],effective gene silencing
same,mrna remaining at 5 mg/kg,[4],15 to 45%
CCCCC/C=C\C/C=C\CCCCCCCCC(CCCCCCCC/C=C\C/C=C\CCCCC)NC(=O)CN(C)C [Compound L-30],delivery of anti-HPRT1 DsiRNA payload to liver tissues,[1],remarkably effective
same,changes in body weight or liver,[2],no changes
same,tolerability,[2],well-tolerated
same,pKa,[3],5.8
same,reducing serum AFP,Hep3B tumor,remarkably effective
same,reducing tumor weight,Hep3B tumor,remarkably effective
same,% mRNA Knockdown,[4],86.4%
same,gene silencing at the lower dose,[4],effective gene silencing
same,mrna remaining at 5 mg/kg,[4],~15%

# Reference: patent publication US11059807B2, “Amine cationic lipids and uses thereof” (Dicerna Pharmaceuticals, Inc., priority 2011, dated 2021)
